Data taken from PubChem BioAssay AID1963862 (Molecular Pharmacology Branch, DTP, NCI, 2024).

System: KRAS patient-derived spheroids with HUVEC/MSC, viability
Assay: Anticancer human tumor 941728-121-R-J1-PDC patient-derived lung adenocarcinoma cell line growth inhibition [KRAS2]
Settings: for IC50: curve of first compound; for viability, T/C: stronger effect = lower value
Source text: Multicellular complex tumor spheroid response to RAS pathway inhibitors in combination with a targeted agents in patient-derived cell lines with oncogenic KRAS variants from multiple cancer types
A high-throughput screen of multi-cell type tumor spheroids was designed to identify active combinations of targeted small molecules and KRAS pathway inhibitors. Complex spheroids include a stromal component modeled by human endothelial cells (HUVEC) and fibroblasts modeled by human mesenchymal stem cells (MSCs). The concentration ranges selected for each drug and investigational agent were based upon clinically achievable concentrations if the clinical Cmax of the agent was known.
Compounds. The drugs and investigational agents: BI-3406 (NSC825286), BAY-293 (NSC824723), batoprotafib (TNO155; NSC825523), sotorasib (AMG 510; NSC818433), MRTX1257 (NSC819558), elimusertib (BAY 1895344; NSC800525), molibresib (GSK525762; NSC774829), temuterkib (LY3214996; NSC803410), venetoclax (NSC766270), alisertib (NSC759677), olaparib (NSC753686), talazoparib (NSC767125), erdafitinib (NSC781556), ipatasertib (NSC767898), cabozantinib (NSC761068), nintedanib (NSC756659), abemaciclib (NSC768073), docetaxel (NSC628503), trametinib (NSC758246), and sapanisertib (NSC764658) were obtained from the National Cancer Institute (NCI) Developmental Therapeutics Program Chemical Repository. The FDA-approved anticancer drug set is available from the Developmental Therapeutics Program. […] The stock solutions were prepared in dimethyl sulfoxide (DMSO, Sigma-Aldrich, St. Louis, MO, cat. D2650) at 800-fold the tested concentration and stored at -70 degrees C prior to their use. All drugs and investigational agents were tested over a range starting from a high concentration at or near the clinical Cmax and decreasing in half-log increments. If the clinical Cmax for an agent had not been determined, the highest concentration tested was 10 microM.
Cell Culture. All cells were maintained in an incubator at 37 degrees C and 5% CO2 with 95% humidity. The PDC lines were cultured according to standard operating procedures established by the NCI PDMR (https://pdmr.cancer.gov/sops/default.htm). Briefly, all PDCs were thawed and cultured in Matrigel-coated flasks prepared with a working solution of 1X Ham's F-12 nutrient mix, without supplementation (Invitrogen, Waltham, MA, cat. 11765054), 100 U/mL penicillin-streptomycin (Invitrogen, cat. 15140122), and 2.5% Matrigel (Corning Inc., Corning, NY, cat. 354248) for the first three passages. All PDCs were cultured in complete DMEM/F-12 media containing advanced DMEM/F-12 (Invitrogen, cat. 12634028), 4.9% defined fetal bovine serum, heat inactivated (HyClone Laboratories Inc., Logan, UT, cat. SH30070.03HI), 389 ng/mL hydrocortisone (Sigma-Aldrich, cat. H4001), 9.7 ng/mL human EGF recombinant protein (Invitrogen, cat. PHG0313), 23.4 microg/mL adenine (Sigma-Aldrich, cat. A2786), 97.3 U/mL penicillin-streptomycin (Invitrogen, cat. 15140122), 1.9 mM L-glutamine (Invitrogen, cat. 25030081), and 9.7 microM Y-27632 dihydrochloride (Tocris Bioscience, Bristol, United Kingdom, cat. 1254). The PDCs were cultured in complete DMEM/F12 media without 9.7 microM Y-27632 dihydrochloride for at least two passages prior to the screen. The established cell line HOP-62 was cultured in RPMI 1640 medium, HEPES (Invitrogen, cat. 22400105) with 10% defined fetal bovine serum (HyClone Laboratories Inc., cat. SH30070.03) and 2 mM L-glutamine (Invitrogen, cat. 25030081). The pooled donor HUVEC were cultured in endothelial cell growth medium 2 (PromoCell, Heidelberg, Germany, cat. C-22011) and the hMSC were cultured in mesenchymal stem cell growth medium 2 (PromoCell, cat. C-28009). For all experiments, HUVEC and hMSC were used at passages </=5, while the malignant cell lines were used at passages </=15. […]

[1] = second compound 0.1 µM, first compound 0.00316 µM
[2] = second compound 0.1 µM, first compound 0.01 µM
[3] = second compound 0.1 µM, first compound 0.0316 µM
[4] = second compound 0.1 µM, first compound 0.1 µM
[5] = second compound 0.316 µM, first compound 0.00316 µM
[6] = second compound 0.316 µM, first compound 0.01 µM
[7] = second compound 0.316 µM, first compound 0.0316 µM
[8] = second compound 0.316 µM, first compound 0.1 µM
[9] = second compound 1 µM, first compound 0.00316 µM
[10] = second compound 1 µM, first compound 0.01 µM
[11] = second compound 1 µM, first compound 0.0316 µM
[12] = second compound 1 µM, first compound 0.1 µM
[13] = second compound 3.16 µM, first compound 0.00316 µM
[14] = second compound 3.16 µM, first compound 0.01 µM
[15] = second compound 3.16 µM, first compound 0.0316 µM
[16] = second compound 3.16 µM, first compound 0.1 µM
[17] = second compound 10 µM, first compound 0.00316 µM
[18] = second compound 10 µM, first compound 0.01 µM
[19] = second compound 10 µM, first compound 0.0316 µM
[20] = second compound 10 µM, first compound 0.1 µM
[21] = second compound 0.1 µM, first compound 0.316 µM
[22] = second compound 0.1 µM, first compound 1 µM
[23] = second compound 0.316 µM, first compound 0.316 µM
[24] = second compound 0.316 µM, first compound 1 µM
[25] = second compound 1 µM, first compound 0.316 µM
[26] = second compound 1 µM, first compound 1 µM
[27] = second compound 3.16 µM, first compound 0.316 µM
[28] = second compound 3.16 µM, first compound 1 µM
[29] = second compound 10 µM, first compound 0.316 µM
[30] = second compound 10 µM, first compound 1 µM
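Also: spheroids exposed to agents for seven days before readout.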

| Compound | IC50 (second compound 0.1 µM) | IC50 (second compound 0.316 µM) | IC50 (second compound 1 µM) | IC50 (second compound 3.16 µM) | IC50 (second compound 10 µM) | viability, T/C [1] | viability, T/C [2] | viability, T/C [3] | viability, T/C [4] | viability, T/C [5] | viability, T/C [6] | viability, T/C [7] | viability, T/C [8] | viability, T/C [9] | viability, T/C [11] | viability, T/C [12] | viability, T/C [15] | viability, T/C [16] | viability, T/C [19] | viability, T/C [20] | other results |
| --- | --- | --- | --- | --- | --- | --- | --- | --- | --- | --- | --- | --- | --- | --- | --- | --- | --- | --- | --- | --- | --- |
| Cn1ncnc1[C@H]1c2n[nH]c(=O)c3cc(F)cc(c23)N[C@@H]1c1ccc(F)cc1 + COc1cc2nc(C)nc(NC(C)c3cc(N)cc(C(F)(F)F)c3)c2cc1OC1CCOC1 | > 100 nM | < 0.316 nM | < 0.316 nM | < 0.316 nM | < 0.316 nM | 47.1% | 52.2% | 66.2% | 58.8% | 36.7% | 36.8% | 47.6% | 48% | 30.7% | 33.5% | 28.7% | 22.1% | 23.6% | 9.61% | 10.3% | viability, T/C (second compound 0.1 µM, first compound 0.000316 µM): 61.1%; viability, T/C (second compound 0.1 µM, first compound 0.001 µM): 51.9%; viability, T/C (second compound 0.316 µM, first compound 0.000316 µM): 48.9%; viability, T/C (second compound 0.316 µM, first compound 0.001 µM): 41.8%; viability, T/C (second compound 1 µM, first compound 0.000316 µM): 41.6%; viability, T/C (second compound 1 µM, first compound 0.001 µM): 31.4%; viability, T/C [10]: 25.6%; viability, T/C (second compound 3.16 µM, first compound 0.000316 µM): 36.6%; viability, T/C (second compound 3.16 µM, first compound 0.001 µM): 34.4%; viability, T/C [13]: 32.1%; viability, T/C [14]: 27.4%; viability, T/C (second compound 10 µM, first compound 0.000316 µM): 14.5%; viability, T/C (second compound 10 µM, first compound 0.001 µM): 11.8%; viability, T/C [17]: 13.1%; viability, T/C [18]: 8% |
| COC(=O)c1ccc2c(C(=Nc3ccc(N(C)C(=O)CN4CCN(C)CC4)cc3)c3ccccc3)c(O)[nH]c2c1 + C=CC(=O)N1CCN(c2nc(=O)n(-c3c(C)ccnc3C(C)C)c3nc(-c4c(O)cccc4F)c(F)cc23)C(C)C1 | < 31.6 nM | < 31.6 nM | < 31.6 nM | < 31.6 nM | < 31.6 nM |  |  | 24.5% | 19.7% |  |  | 22.8% | 20.1% |  | 26.3% | 21.2% | 27.1% | 25.1% | 41.2% | 30.2% | viability, T/C [21]: 16.4%; viability, T/C [22]: 12.7%; viability, T/C (second compound 0.1 µM, first compound 3.16 µM): 10.2%; viability, T/C (second compound 0.1 µM, first compound 10 µM): 7.41%; viability, T/C [23]: 18.5%; viability, T/C [24]: 12.8%; viability, T/C (second compound 0.316 µM, first compound 3.16 µM): 8.05%; viability, T/C (second compound 0.316 µM, first compound 10 µM): 6.62%; viability, T/C [25]: 16.8%; viability, T/C [26]: 14.4%; viability, T/C (second compound 1 µM, first compound 3.16 µM): 7.55%; viability, T/C (second compound 1 µM, first compound 10 µM): 5.43%; viability, T/C [27]: 20.8%; viability, T/C [28]: 17.8%; viability, T/C (second compound 3.16 µM, first compound 3.16 µM): 6.67%; viability, T/C (second compound 3.16 µM, first compound 10 µM): 8.37%; viability, T/C [29]: 31.6%; viability, T/C [30]: 29.6%; viability, T/C (second compound 10 µM, first compound 3.16 µM): 4.3%; viability, T/C (second compound 10 µM, first compound 10 µM): 0.23% |
| CCN1CCN(Cc2ccc(Nc3ncc(F)c(-c4cc(F)c5nc(C)n(C(C)C)c5c4)n3)nc2)CC1 + COc1cc2nc(C)nc(NC(C)c3cc(N)cc(C(F)(F)F)c3)c2cc1OC1CCOC1 | < 3.16 nM | < 3.16 nM | < 3.16 nM | < 3.16 nM | < 3.16 nM | 45.9% | 41% | 34.2% | 36.8% | 44.2% | 35.3% | 28.8% | 31.7% | 27.8% | 28.5% | 27.7% | 21.1% | 19.5% | 2.12% | 0.46% | viability, T/C [21]: 42%; viability, T/C [22]: 43.3%; viability, T/C [23]: 35.3%; viability, T/C [24]: 40.8%; viability, T/C [10]: 28.7%; viability, T/C [25]: 22.1%; viability, T/C [26]: 32.9%; viability, T/C [13]: 23.3%; viability, T/C [14]: 22.7%; viability, T/C [27]: 15.6%; viability, T/C [28]: 14.5%; viability, T/C [17]: 17.2%; viability, T/C [18]: 6.08%; viability, T/C [29]: 0.87%; viability, T/C [30]: 0.85% |
